Where two headings read alike, the source gives them in different places.

For test [1], the system named is SJL-/J mice. In words: Experimental allergic encephalomyelitis (EAE) in mice. Format: in vivo. To be noted: 200 μg once daily subcutaneous, FIG. 14.
Test [2] addresses T1, Human PPAR-γ2 (Homo sapiens, UniProt P37231).
T1 construct: inserting the PPARγ2 cDNA coding region into pcDNA3.1+ vector; expressed in transfected cells; host or cells: HEK293 cells (ATCC)
T1 sequence (P37231 1-505): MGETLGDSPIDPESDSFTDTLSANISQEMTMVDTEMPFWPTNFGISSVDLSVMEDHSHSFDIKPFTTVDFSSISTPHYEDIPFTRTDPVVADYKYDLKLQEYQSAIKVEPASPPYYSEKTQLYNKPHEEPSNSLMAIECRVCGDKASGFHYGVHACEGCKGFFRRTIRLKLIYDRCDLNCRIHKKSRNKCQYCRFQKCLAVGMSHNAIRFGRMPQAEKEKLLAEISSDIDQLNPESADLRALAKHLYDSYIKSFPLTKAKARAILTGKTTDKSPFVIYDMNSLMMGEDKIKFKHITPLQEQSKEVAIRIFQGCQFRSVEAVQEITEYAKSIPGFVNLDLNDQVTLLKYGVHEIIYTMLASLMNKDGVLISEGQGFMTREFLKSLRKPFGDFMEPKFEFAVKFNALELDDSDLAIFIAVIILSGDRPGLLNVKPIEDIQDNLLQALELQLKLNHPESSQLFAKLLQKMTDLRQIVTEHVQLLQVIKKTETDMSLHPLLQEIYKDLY
In words: PPAR-gamma mediated transactivation of PPRE-luciferase reporter. Format: cell-based. The protocol: Human PPAR-γ2 expression vector was constructed by inserting PPAR-γ2 encoding region into pcDNA3.1+ vector (Invitrogen, Carlsbad, Calif.). Luciferase reporter vector was constructed by ligating PPRE response element adjacent to the upstream of Firefly luciferase coding region. Control vector, pRL-SV40 expressing Renilla luciferase was purchased from Promega (Madison, Wis.).
About 2.7×10^4 293 cells (ATCC, Manassas, Va.) were plated into a 35 mm culture well and maintained in Eagle's Minimal Essential Medium (ATCC, Manassas, Va.) supplemented with 10% heat inactivated horse serum (ATCC, Manassas, Va.) for 24 hours. Expression, reporter and control vectors (2.5 ng control and 100 ng others per culture well) were transfected by LI[…]™ Reagent (Invitrogen, Carlsbad, Calif.). Transfection reagent and DNA were prepared according to manufacture's recommendations and incubated with cells for 3 hours followed by adding equal volume EMEM supplemented with 20% horse serum. Twenty-four hours after transfection, cells were treated with vehicle or compounds at indicated final concentration for 24 hours. Final concentration of vehicle was 0.001% DMSO (Sigma, ST Louis, Mo.) in medium. Vehicle and compound treatment were all conducted in triplicate. Each culture well was then assayed for a response characterized by increased Firefly luciferase activity normalized with Renilla luciferase activity.
Assays for Firefly luciferase activity and Renilla luciferase activity followed the standard protocol of Dual-luciferase Reporter® Assay System (Promega, Madison, Wis.). Briefly, 400 μl Passive Lysis Buffer was added into each culture well and all wells were placed on a shaker for 15 minutes. Five μl cell lysate of each well was added to a reaction tube. Luciferase reagent II and Stop & Glo® were injected into the reaction tube sequentially by Sirius Luminometer (Berthold Detection Systems, Pforzheim, Germany). Final reporter activity was calculated as the ratio of Firefly luciferase activity over by Renilla luciferase activity.
Human PPARγ2 expression vector was constructed by inserting the PPARγ2 cDNA coding region into pcDNA3.1+ vector (Invitrogen, Carlsbad, Calif.). The PPRE-luciferase reporter gene was the kind gift of Dr. Kenneth Feingold. The control vector, pRL-SV40 containing the Renilla luciferase cDNA was purchased from Promega (Madison, Wis.). About 2.7×10^4 HEK293 human embryonal kidney cells (ATCC) were plated into a 35-mm tissue culture dish and maintained in Eagle Modified Essential Medium (EMEM, ATCC) containing 10% heat-inactivated horse serum for 24 h. Expression, reporter (100 ng/dish) and control (2.5 ng/dish) vectors were transfected using LI[…]™ Reagent (GibcoBRL) according to manufacturer's recommendation. At 24 h after transfection, cells were treated with vehicle (0.001% DMSO in medium) or compounds at the indicated concentration and incubated for 24 h. Each treatment was conducted in triplicate. Each culture dish was assayed for firefly luciferase activity normalized by Renilla luciferase activity to account for differences in transfection efficiency. Luciferase activity was measured using the Dual-luciferase Reporter® Assay System (Promega) and a Sirius luminometer (Berthold Detection System, Pforzheim, Germany).
For orientation: In a reporter assay the amount or activity of a reporter protein is the signal.

What is called EC50 is the concentration at which the effect is half-maximal. For `COC(=O)C(=Cc1cc(OC)cc(OC)c1)c1ccc(Oc2ccc(CC3SC(=O)NC3=O)cc2)cc1` (centres unmarked) [Compound 11, 3-(3,5-Dimethoxyphenyl)-2-{4-[4-(2,4-dioxothiazolidin-5-ylmethyl)-phenoxy]-phenyl}-acrylic acid methyl ester], the “amelioration of EAE (clinical score)” value in test [1] is on record as “highly effective”. Also, the “transactivation potency less than that of rosiglitazone” value in test [2] was at most 30 fold. Further, the EC50 in test [2] (HEK293 cells, human PPAR-gamma2, ± SE, n=5, FIG. 24, read-out: EC50 for transactivation of PPRE-Luc reporter) amounted to 284 ± 36 nM; in test [2] (cells transfected with human PPAR-gamma2, 24 hours, non-linear regression, read-out: EC50, induction of PPAR-γ mediated luciferase activity) it was 280 nM. Also, the “PPAR-gamma transactivation potency relative to a comparator, in words” value in test [2] (in vitro transactivation assay) is given as “approximately one-thirtieth the activity of rosiglitazone”.

(Values after patent US20060235062A1, “Novel heterocyclic analogs of diphenylethylene compounds” (THERACOS, INC., priority 2002, published 2006).)
